Laboratory results reported in PubChem BioAssay (NCI).
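Tested at 5 concentrations; 48 h exposure; 96-well plates; endpoints linearly interpolated, else capped at highest concentration. The concentration for 50% growth inhibition is given as GI50. TGI: total growth inhibition.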

Key:
Assay in all cases: growth of human tumour cells (NCI), 48 h
[1] = test system: 786-0 renal
[2] = test system: A498 renal
[3] = test system: A549 NSCLC
[4] = test system: ACHN renal
[5] = test system: BT-549 breast
[6] = test system: CAKI-1 renal
[7] = test system: CCRF-CEM leukemia
[8] = test system: COLO 205 colon
[9] = test system: DU-145 prostate
[10] = test system: EKVX NSCLC
[11] = test system: HCC-2998 colon
[12] = test system: HCT-116 colon
[13] = test system: HCT-15 colon
[14] = test system: HL-60(TB) leukemia
[15] = test system: HOP-62 NSCLC
[16] = test system: HOP-92 NSCLC
[17] = test system: HS 578T breast
[18] = test system: HT29 colon
[19] = test system: IGROV1 ovarian
[20] = test system: K-562 leukemia
[21] = test system: KM12 colon
[22] = test system: LOX IMVI melanoma
[23] = test system: M14 melanoma
[24] = test system: MALME-3M melanoma
[25] = test system: MCF7 breast
[26] = test system: MDA-MB-231 breast
[27] = test system: MDA-MB-435
[28] = test system: MDA-MB-468 breast
[29] = test system: MOLT-4 leukemia
[30] = test system: NCI-H226 lung
[31] = test system: NCI-H23 lung
[32] = test system: NCI-H460 lung
[33] = test system: NCI-H522 lung
[34] = test system: NCI/ADR-RES ovarian
[35] = test system: OVCAR-3 ovarian
[36] = test system: OVCAR-4 ovarian
[37] = test system: OVCAR-5 ovarian
[38] = test system: OVCAR-8 ovarian
[39] = test system: PC-3 prostate
[40] = test system: RPMI-8226 leukemia
[41] = test system: RXF 393 renal
[42] = test system: SF-268 CNS
[43] = test system: SF-295 CNS
[44] = test system: SF-539 CNS
[45] = test system: SK-MEL-2 melanoma
[46] = test system: SK-MEL-28 melanoma
[47] = test system: SK-MEL-5 melanoma
[48] = test system: SK-OV-3 ovarian
[49] = test system: SN12C renal
[50] = test system: SNB-19 CNS
[51] = test system: SNB-75 CNS
[52] = test system: SR leukemia
[53] = test system: SW-620 colon
[54] = test system: T-47D breast
[55] = test system: TK-10 renal
[56] = test system: U251 CNS
[57] = test system: UACC-257 melanoma
[58] = test system: UACC-62 melanoma
[59] = test system: UO-31 renal

With `COCOc1cc2c(=O)c(C)c(C(=O)N[C@@H](Cc3ccccc3)C(O)C(=O)NCc3ccccc3)oc2cc1OC` (stereo partly drawn) the GI50 [1] was > 100 µM, the TGI [1] was > 100 µM and the GI50 [2] was > 100 µM. The TGI [2] was > 100 µM, the GI50 [3] was > 100 µM and the TGI [3] was > 100 µM. The GI50 [4] was > 100 µM, the TGI [4] was > 100 µM and the GI50 [5] was > 100 µM. The TGI [5] was > 100 µM, the GI50 [6] was > 100 µM and the TGI [6] was > 100 µM. For the same compound, the GI50 [7] was > 100 µM, the TGI [7] was > 100 µM and the GI50 [8] was > 100 µM. The TGI [8] was > 100 µM, the GI50 [9] was > 100 µM and the TGI [9] was > 100 µM. The GI50 [10] was > 100 µM, the TGI [10] was > 100 µM and the GI50 [11] was > 100 µM. The TGI [11] was > 100 µM, the GI50 [12] was > 100 µM and the TGI [12] was > 100 µM. The GI50 [13] was > 100 µM, the TGI [13] was > 100 µM and the GI50 [14] was > 100 µM. The TGI [14] was > 100 µM, the GI50 [15] was > 100 µM and the TGI [15] was > 100 µM. The GI50 [16] was > 100 µM, the TGI [16] was > 100 µM and the GI50 [17] was > 100 µM. For the same compound, the TGI [17] was > 100 µM, the GI50 [18] was > 100 µM and the TGI [18] was > 100 µM. For the same compound, the GI50 [19] was > 100 µM, the TGI [19] was > 100 µM and the GI50 [20] was > 100 µM. For the same compound, the TGI [20] was > 100 µM, the GI50 [21] was > 100 µM and the TGI [21] was > 100 µM. The GI50 [22] was > 100 µM, the TGI [22] was > 100 µM and the GI50 [23] was 62.5 µM. The TGI [23] was > 100 µM, the GI50 [24] was > 100 µM and the TGI [24] was > 100 µM. For the same compound, the GI50 [25] was > 100 µM, the TGI [25] was > 100 µM and the GI50 [26] was > 100 µM. For the same compound, the TGI [26] was > 100 µM, the GI50 [27] was > 100 µM and the TGI [27] was > 100 µM. The GI50 [28] was > 100 µM, the TGI [28] was > 100 µM and the GI50 [29] was > 100 µM. For the same compound, the TGI [29] was > 100 µM, the GI50 [30] was > 100 µM and the TGI [30] was > 100 µM. The GI50 [31] was > 100 µM, the TGI [31] was > 100 µM and the GI50 [32] was > 100 µM. For the same compound, the TGI [32] was > 100 µM, the GI50 [33] was > 100 µM and the TGI [33] was > 100 µM. The GI50 [34] was > 100 µM, the TGI [34] was > 100 µM and the GI50 [35] was > 100 µM. The TGI [35] was > 100 µM, the GI50 [36] was > 100 µM and the TGI [36] was > 100 µM. For the same compound, the GI50 [37] was > 100 µM, the TGI [37] was > 100 µM and the GI50 [38] was > 100 µM. For the same compound, the TGI [38] was > 100 µM, the GI50 [39] was > 100 µM and the TGI [39] was > 100 µM. The GI50 [40] was > 100 µM, the TGI [40] was > 100 µM and the GI50 [41] was > 100 µM. The TGI [41] was > 100 µM, the GI50 [42] was > 100 µM and the TGI [42] was > 100 µM. For the same compound, the GI50 [43] was > 100 µM, the TGI [43] was > 100 µM and the GI50 [44] was 38.3 µM. The TGI [44] was > 100 µM, the GI50 [45] was > 100 µM and the TGI [45] was > 100 µM. The GI50 [46] was > 100 µM, the TGI [46] was > 100 µM and the GI50 [47] was > 100 µM. The TGI [47] was > 100 µM, the GI50 [48] was > 100 µM and the TGI [48] was > 100 µM. For the same compound, the GI50 [49] was > 100 µM, the TGI [49] was > 100 µM and the GI50 [50] was > 100 µM. For the same compound, the TGI [50] was > 100 µM, the GI50 [51] was 96.7 µM and the TGI [51] was > 100 µM. The GI50 [52] was > 100 µM, the TGI [52] was > 100 µM and the GI50 [53] was > 100 µM. For the same compound, the TGI [53] was > 100 µM, the GI50 [54] was > 100 µM and the TGI [54] was > 100 µM. For the same compound, the GI50 [55] was > 100 µM, the TGI [55] was > 100 µM and the GI50 [56] was > 100 µM. The TGI [56] was > 100 µM, the GI50 [57] was > 100 µM and the TGI [57] was > 100 µM. The GI50 [58] was > 100 µM, the TGI [58] was > 100 µM and the GI50 [59] was > 100 µM. For the same compound, the TGI [59] was > 100 µM.
